In patent US20200054633A1 (priority 2017, published 2020):

Settings: 600 mg, OST placebo; N=74
Text: This study followed a randomized, double-blind, placebo-controlled, parallel-group, multicenter design.
Analysis set for safety: Safety Set included all subjects who received at least 1 dose of study drug.

O=C(O)[C@H]1C2CCC(CC2)[C@@H]1Nc1nc(-c2c[nH]c3ncc(F)cc23)ncc1F [Compound (1), Pimodivir]
Any TEAE: 39 (52.7%)
Any TEAE at least possibly related to study medication: 26 (35.1%)
Any TEAE leading to a temporary stop of study medication: 2 (2.7%)
Any TEAE leading to permanent stop of study medication: 3 (4.1%)
Any TEAE with fatal outcome: 0
Grade 3 TEAE: Anaemia: 0
Grade 3 TEAE: Balance disorder: 0
Grade 3 TEAE: Blood and lymphatic system disorders: 1 (1.4%)
Grade 3 TEAE: Blood creatine phosphokinase increased: 1 (1.4%)
Grade 3 TEAE: Bronchitis: 0
Grade 3 TEAE: Constipation: 1 (1.4%)
Grade 3 TEAE: Diarrhoea: 1 (1.4%)
Grade 3 TEAE: Fatigue: 0
Grade 3 TEAE: Gastrointestinal disorders: 2 (2.7%)
Grade 3 TEAE: General disorders and administration site conditions: 0
Grade 3 TEAE: Hyperkalaemia: 1 (1.4%)
Grade 3 TEAE: Infections and infestations: 0
Grade 3 TEAE: Investigations: 1 (1.4%)
Grade 3 TEAE: Lymphopenia: 1 (1.4%)
Grade 3 TEAE: Metabolism and nutrition disorders: 1 (1.4%)
Grade 3 TEAE: Nausea: 0
Grade 3 TEAE: Nervous system disorders: 0
Grade 3 TEAE: Neutropenia: 0
Grade 3 TEAE: Neutrophil count decreased: 0
Grade 3 TEAE: Protein urine present: 0
Grade 3 TEAE: Syncope: 0
Grade 3 TEAE: Thrombocytopenia: 0
Grade 3 TEAE: Vomiting: 0
TEAE: Abdominal discomfort: 1 (1.4%) n (%)
TEAE: Abdominal pain: 0 n (%)
TEAE: Abdominal pain upper: 2 (2.7%) n (%)
TEAE: Abdominal tenderness: 0 n (%)
TEAE: Alanine aminotransferase increased: 2 (2.7%) n (%)
TEAE: All events: 39 (52.7%) n (%)
TEAE: Anaemia: 0 n (%)
TEAE: Aphthous stomatitis: 0 n (%)
TEAE: Aspartate aminotransferase increased: 1 (1.4%) n (%)
TEAE: Atrioventricular block first degree: 0 n (%)
TEAE: Back pain: 1 (1.4%) n (%)
TEAE: Bacterial vaginosis: 0 n (%)
TEAE: Balance disorder: 0 n (%)
TEAE: Blood and lymphatic system disorders: 3 (4.1%) n (%)
TEAE: Blood bicarbonate decreased: 0 n (%)
TEAE: Blood bilirubin decreased: 0 n (%)
TEAE: Blood bilirubin increased: 0 n (%)
TEAE: Blood creatine phosphokinase increased: 1 (1.4%) n (%)
TEAE: Blood creatinine increased: 0 n (%)
TEAE: Blood glucose increased: 1 (1.4%) n (%)
TEAE: Blood potassium increased: 1 (1.4%) n (%)
TEAE: Blood pressure diastolic increased: 1 (1.4%) n (%)
TEAE: Blood urine: 0 n (%)
TEAE: Bradycardia: 1 (1.4%) n (%)
TEAE: Bronchitis: 0 n (%)
TEAE: Cardiac disorders: 1 (1.4%) n (%)
TEAE: Constipation: 1 (1.4%) n (%)
TEAE: Contusion: 1 (1.4%) n (%)
TEAE: Cough: 1 (1.4%) n (%)
TEAE: Decreased appetite: 0 n (%)
TEAE: Dehydration: 0 n (%)
TEAE: Diabetes mellitus: 0 n (%)
TEAE: Diarrhoea: 20 (27.0%) n (%)
TEAE: Dizziness: 2 (2.7%) n (%)
TEAE: Dry mouth: 1 (1.4%) n (%)
TEAE: Dry skin: 1 (1.4%) n (%)
TEAE: Dysgeusia: 0 n (%)
TEAE: Dyspepsia: 0 n (%)
TEAE: Dyspnoea: 0 n (%)
TEAE: Dysuria: 0 n (%)
TEAE: Ear and labyrinth disorders: 0 n (%)
TEAE: Ear discomfort: 0 n (%)
TEAE: Ecchymosis: 0 n (%)
TEAE: Electrocardiogram ST segment depression: 0 n (%)
TEAE: Enteritis: 0 n (%)
TEAE: Fatigue: 0 n (%)
TEAE: Fungal infection: 0 n (%)
TEAE: Gamma-glutamyltransferase increased: 1 (1.4%) n (%)
TEAE: Gastrointestinal disorders: 22 (29.7%) n (%)
TEAE: General disorders and administration site conditions: 0 n (%)
TEAE: Glomerular filtration rate decreased: 1 (1.4%) n (%)
TEAE: Gout: 0 n (%)
TEAE: HIV antibody positive: 0 n (%)
TEAE: HIV test positive: 0 n (%)
TEAE: Haematuria: 0 n (%)
TEAE: Haemoglobin decreased: 0 n (%)
TEAE: Haemoglobin increased: 0 n (%)
TEAE: Headache: 1 (1.4%) n (%)
TEAE: Hepatic enzyme increased: 1 (1.4%) n (%)
TEAE: Hepatitis C: 0 n (%)
TEAE: Herpes simplex: 0 n (%)
